Experimental data reported in patent US20240245657A1, “THIADIAZOLIDINONES FOR THEIR USE IN THE TREATMENT OF LIMB-GIRDLE MUSCULAR DYSTROPHY” (CONSEJO SUPERIOR DE INVESTIGACIONES CIENTÍFICAS, priority 2021, published 2024).

Assays:
[1] = tested on: p70S6K; experiment: Western blot of p70S6K and its phosphorylated forms in human primary myotubes (controls and LGMDR1 patients); format: cell-based; settings: 48 h; for P-p70S6K (T389), protein expression value relative to the same sample without treatment / P-p70S6K (T421-S424), protein expression value relative to the same sample without treatment: tideglusib 1.2 μM
Experimental: (§1) To obtain primary myoblasts, muscle biopsies were processed and cultured in monolayer according to the method described by Askanas (Neurology, 1975, 25, 58-67). To isolate the pure population of myoblasts and CD56-negative cells (CD56-), the protocol described previously (Jaka et al., Expert Reviews in Molecular Medicine, 2017, 19, e2) was used, using immunomagnetic separation based on the early presence of the surface marker CD56 (Miltenyi Biotec, 130-050-401).
(§2) Myoblasts were cultured in proliferation medium (DMEM, M-199, Insulin, Glutamine and penicillin-streptomycin) with 10% FBS and growth factors at 37° C. in 5% CO2 air incubator. When myoblasts reached confluence, the FBS concentration was reduced to 2% and growth factors were removed from the medium, promoting fusion and production of myotubes.
(§3) Tideglusib was provided by Dr. Ana Martínez (from The Center for Biological Research, CSIC). It was administered at 1.2 μM, whereas LiCI (Sigma-Aldrich, L7026) was used for comparative purposes at a final concentration of 10 mM. Tideglusib and LiCI were administered at the above referred concentrations to myotubes at eight days of differentiation, and tideglusib also to skin fibroblasts and to CD56-cells. Negative controls, in the case of tideglusib, were performed with DMSO (Fisher Scientific, BP-231). At 48 hours after drug administration, RNA and proteins were extracted.
(§4) Protein collection from muscle samples and cell cultures, as well as Western blot procedure, were performed as previously described (Jaka et al., Expert Reviews in Molecular Medicine, 2017, 19, e2).

[2] = tested on: RPS6; experiment: Western blot of P-RPS6 (Ser235/Ser236) in human primary myotubes (controls and LGMDR1 patients); format: cell-based; settings: 48 h; for P-RPS6 (S235-S236), protein expression value relative to the same sample without treatment: tideglusib 1.2 μM; for P-RPS6 (S235-S236), Western blot densitometry: LiCl 10 mM
Experimental: as §1, §2, §3, §4

[3] = tested on: mTOR; experiment: Western blot of mTOR and P-mTOR in human primary myotubes; format: cell-based; settings: LGMDR1 patient's myotubes, 1.2 μM, 48 h
Experimental: (§5) To obtain primary myoblasts, muscle biopsies were processed and cultured in monolayer according to the method described by […] (Neurology, 1975, 25, 58-67). To isolate the pure population of myoblasts and CD56-negative cells (CD56-), the protocol described previously (Jaka et al., Expert Reviews in Molecular Medicine, 2017, 19, e2) was used, using immunomagnetic separation based on the early presence of the surface marker CD56 (Miltenyi Biotec, 130-050-401). Myoblasts were cultured in proliferation medium (DMEM, M-199, Insulin, Glutamine and penicillin-streptomycin) with 10% FBS and growth factors at 37° C. in 5% CO2 air incubator. When myoblasts reached confluence, the FBS concentration was reduced to 2% and growth factors were removed from the medium, promoting fusion and production of myotubes. Tideglusib was provided by Dr. Ana Martínez (from The Center for Biological Research, CSIC). It was administered at 1.2 μM, whereas LiCI (Sigma-Aldrich, L7026) was used for comparative purposes at a final concentration of 10 mM. Tideglusib and LiCI were administered at the above referred concentrations to myotubes at eight days of differentiation, and tideglusib also to skin fibroblasts and to CD56-cells. Negative controls, in the case of tideglusib, were performed with DMSO (Fisher Scientific, BP-231). At 48 hours after drug administration, RNA and proteins were extracted. Protein collection from muscle samples and cell cultures, as well as Western blot procedure, were performed as previously described (Jaka et al., Expert Reviews in Molecular Medicine, 2017, 19, e2).

[4] = tested on: GSK3β; experiment: Western blot of GSK3β and P-GSK3β (Ser9) in human primary myotubes; format: cell-based; settings: LGMDR1 patients' myotubes, day 8 of differentiation, 1.2 μM, 48 h
Experimental: To isolate the pure population of myoblasts and CD56-negative cells (CD56-), the protocol described previously (Jaka et al., Expert Reviews in Molecular Medicine, 2017, 19, e2) was used, using immunomagnetic separation based on the early presence of the surface marker CD56 (Miltenyi Biotec, 130-050-401). Myoblasts were cultured in proliferation medium (DMEM, M-199, Insulin, Glutamine and penicillin-streptomycin) with 10% FBS and growth factors at 37° C. in 5% CO2 air incubator. When myoblasts reached confluence, the FBS concentration was reduced to 2% and growth factors were removed from the medium, promoting fusion and production of myotubes. Tideglusib was provided by Dr. Ana Martínez (from The Center for Biological Research, CSIC). It was administered at 1.2 μM, whereas LiCI (Sigma-Aldrich, L7026) was used for comparative purposes at a final concentration of 10 mM. Tideglusib and LiCI were administered at the above referred concentrations to myotubes at eight days of differentiation, and tideglusib also to skin fibroblasts and to CD56-cells. Negative controls, in the case of tideglusib, were performed with DMSO (Fisher Scientific, BP-231). At 48 hours after drug administration, RNA and proteins were extracted. […]

[5] = tested on: β-catenin; experiment: Western blot of total and active β-catenin in human primary myotubes (Wnt pathway activation); format: cell-based; settings: day 8 of differentiation, 48 h; for active β-catenin: tideglusib 1.2 μM, LiCl 10 mM
Experimental: as §1, §2, §3, §4

[6] = tested on: CAPN3, FOS, ANOS1 and ITGB1BP2 genes; experiment: Quantitative real-time PCR of deregulated genes in LGMDR1 myotubes; format: cell-based, human; settings: 1.2 μM, 48 h
Experimental: Tideglusib was provided by Dr. Ana Martínez (from The Center for Biological Research, CSIC). It was administered at 1.2 μM, whereas LiCI (Sigma-Aldrich, L7026) was used for comparative purposes at a final concentration of 10 mM. Tideglusib and LiCI were administered at the above referred concentrations to myotubes at eight days of differentiation, and tideglusib also to skin fibroblasts and to CD56-cells. Negative controls, in the case of tideglusib, were performed with DMSO (Fisher Scientific, BP-231). At 48 hours after drug administration, RNA and proteins were extracted. RNA extraction from primary myoblast/myotubes was performed with an RNeasy Mini Kit (Qiagen). In the case of the muscle biopsies, which were snap frozen and stored at −80° C. until use, total RNA was obtained using an RNA-Plus Kit (QBiogene). The isolated RNA was reverse-transcribed to first-strand complementary DNA (cDNA) in a final volume of 50 μl using a High Capacity cDNA Reverse Transcription Kit (Applied Biosystems), according to the manufacturer's instructions. The expression levels of CAPN3, FOS, ITGB1BP2, ANOS1 and GAPDH genes in the samples were assessed by real-time quantitative PCR with TaqMan probes (Table Il below) using the ‘CFX384 Real-Time PCR Detection System’ (Bio-Rad).

[7] = tested on: integrin β1D and melusin; experiment: Western blot of structural (costamere) proteins in human myotubes; format: cell-based; settings: 1.2 μM, 48 h
Experimental: as §5, with “Protein collection from muscle samples and cell cultures, as well as Western blot procedure, were performed as previously described (Jaka et al., Expert Reviews in Molecular Medicine, 2017, 19, e2).” left out

[8] = tested on: skin fibroblasts; experiment: Western blot of Wnt and mTOR pathway proteins in skin fibroblasts; format: cell-based, human; settings: 1.2 μM, 48 h
Experimental: Skin fibroblasts from healthy controls and from LGMDR1 patients were provided by Dr. Ana Aiastui (Biodonostia Health Research Institute, Cell Culture and Histology Platform). Cells were cultured in Dulbecco's modified Eagle's medium (DMEM, Gibco, 41966-029) supplemented with 10% FBS (Gibco, 10270-106) and 1% penicillin-streptomycin (Gibco, 15140-122) at 37° C. in a 5% CO2 air incubator. Human fibroblasts were cultured at a density of 4×10^4 cells/ml. Tideglusib was provided by Dr. Ana Martínez (from The Center for Biological Research, CSIC). It was administered at 1.2 μM, whereas LiCI (Sigma-Aldrich, L7026) was used for comparative purposes at a final concentration of 10 mM. Tideglusib and LiCI were administered at the above referred concentrations to myotubes at eight days of differentiation, and tideglusib also to skin fibroblasts and to CD56-cells. Negative controls, in the case of tideglusib, were performed with DMSO (Fisher Scientific, BP-231). At 48 hours after drug administration, RNA and proteins were extracted. Protein collection from muscle samples and cell cultures, as well as Western blot procedure, were performed as previously described (Jaka et al., Expert Reviews in Molecular Medicine, 2017, 19, e2).

[9] = tested on: CD56-cells; experiment: Western blot of Wnt and mTOR pathway proteins in CD56- cells from muscle; format: cell-based, human; settings: 1.2 μM, 48 h
From the text: as §5, with “130-050-401).” for “130-050-401). Myoblasts were cultured in proliferation medium (DMEM, M-199, Insulin, Glutamine and penicillin-streptomycin) with 10% FBS and growth factors at 37° C. in 5% CO2 air incubator. When myoblasts reached confluence, the FBS concentration was reduced to 2% and growth factors were removed from the medium, promoting fusion and production of myotubes.”

[10] = tested on: FRBZ gene, β1D integrin; settings: primary myotubes, LiCl treatment; cited from earlier work
[11] = tested on: GSK3; settings: low therapeutic dose of lithium (0.5 mM); cited from earlier work
[12] = tested on: GSK3β; settings: low dose of LiCl treatment; cited from earlier work
[13] = LGMDR1 patient's myotubes, 1.2 μM
[14] = myotubes of LGMDR1 patient 09-25

In the case of O=c1sn(-c2cccc3ccccc23)c(=O)n1Cc1ccccc1 [Tideglusib, 4-benzyl2-naphthalen-1-yl-[1,2,4]thiadiazolidine-3,5-dione], the “expression of total p70S6K” value [1, 13] is reported as “increased”, the “phosphorylation of p70S6K (Thr389)” value [1, 13] is reported as “increased” and the “phosphorylation of p70S6K (Thr421/Ser424)” value [1, 13] is reported as “increased”. For the same compound, the “effect on p70S6K, its phosphorylation and P-RPS6” value ([1]; control myotubes, 1.2 μM) was “very slight”, the “P-p70S6K (T389), protein expression value relative to the same sample without treatment” value [1, 14] was 1.8 and the “P-p70S6K (T421-S424), protein expression value relative to the same sample without treatment” value [1, 14] was 1.8. The “P-p70S6K (T389), protein expression value relative to the same sample without treatment” value ([1]; myotubes of control 13-05) was 0.85, the “P-p70S6K (T421-S424), protein expression value relative to the same sample without treatment” value ([1]; myotubes of control 13-05) was 0.8 and the “phosphorylation of RPS6 (Ser235/Ser236)” value [2, 13] was “increased”. The “P-RPS6 (S235-S236), protein expression value relative to the same sample without treatment” value [2, 14] was 1.6, the “P-RPS6 (S235-S236), protein expression value relative to the same sample without treatment” value ([2]; myotubes of control 13-05) was 0.8 and the “phosphorylation of mTOR (Ser2448)” value [3] was “significant increase”. For the same compound, the “phosphorylation of mTOR (Ser2481)” value [3] was “significant increase”, the “total mTOR” value [3] was “no significant changes” and the “amount of total GSK3β” value [4] was “increases”. For the same compound, the “phosphorylation of GSK3β (Ser9)” value [4] was “increases”, the “total β-catenin expression” value ([5]; 1.2 μM) was “increase” and the “active β-catenin” value [5] was “increase”. For the same compound, the “expression of ANOS1 gene” value [6] was “increase”, the “expression of CAPN3 gene” value [6] was “increase” and the “expression of FOS gene” value [6] was “increase”. For the same compound, the “expression of ITGB1BP2 gene” value [6] was “increase”, the “integrin β1D protein” value [7] was “increase” and the melusin protein [7] was “increase”. The “active form of β-catenin” value [8] was “did not show an increase”, the “phosphorylation of GSK3β (Ser9)” value [8] was “did not show an increase” and the “phosphorylation of RPS6” value [8] was “decrease”. For the same compound, the β-catenin [8] was “did not show an increase”, the “active form of β-catenin” value [9] was “no significant alteration” and the “amount of total β-catenin” value [9] was “no significant alteration”. For the same compound, the mTOR [9] was “no differences”, the “phosphorylation of RPS6” value [9] was “no differences” and the “phosphorylation of p70S6K” value [9] was “no differences”.
With [Cl-].[Li+] [LiCl] the “P-p70S6K (T421-S424), Western blot densitometry” value ([1]; LiCl 10 mM, myotubes of LGMDR1 patient 09-21, same sample without drug 0.3) was 0.5, the “P-p70S6K (T421-S424), Western blot densitometry” value ([1]; LiCl 10 mM, myotubes of LGMDR1 patient 09-24, same sample without drug 1.8) was 1.4 and the “P-p70S6K (T421-S424), Western blot densitometry” value ([1]; LiCl 10 mM, myotubes of LGMDR1 patient 09-25, same sample without drug 0.7) was 0.65. The “P-p70S6K (T421-S424), Western blot densitometry” value ([1]; LiCl 10 mM, myotubes of control 09-23, same sample without drug 0.8) was 0.78, the “P-p70S6K (T421-S424), Western blot densitometry” value ([1]; LiCl 10 mM, myotubes of control 13-07, same sample without drug 0.8) was 0.7 and the “proteins involved in the mTOR pathway and their phosphorylation forms (p70S6K, RPS6)” value ([1]; control and LGMDR1 patient's myotubes, LiCl 10 mM) was “did not provide any increase”. The “P-RPS6 (S235-S236), Western blot densitometry” value ([2]; myotubes of LGMDR1 patient 09-21, same sample without drug 1.5) was 1.5, the “P-RPS6 (S235-S236), Western blot densitometry” value ([2]; myotubes of LGMDR1 patient 09-24, same sample without drug 3.5) was 3 and the “P-RPS6 (S235-S236), Western blot densitometry” value ([2]; myotubes of LGMDR1 patient 09-25, same sample without drug 2.8) was 2.5. The “P-RPS6 (S235-S236), Western blot densitometry” value ([2]; myotubes of control 09-23, same sample without drug 3.0) was 3.8, the “P-RPS6 (S235-S236), Western blot densitometry” value ([2]; myotubes of control 13-07, same sample without drug 3) was 3 and the “active β-catenin” value [5] was “increase”. For the same compound, the “expression of the FRBZ gene” value [10] was “lower levels”, the “β1D adult isoform of the integrin” value [10] was “higher levels” and the GSK3 inhibition [11] was “inhibit”. The myoblast fusion [11] was “augment”, the GSK3β inhibition [12] was “effective in inhibiting” and the “fatigue resistance in some muscles via NFAT activation” value [12] was “enhances”.
